Like-named read-outs stand apart in the source and are kept apart here. One block for each molecule: values may come before it.
Key:
[1] = system: TAOK1 (neojunction transcript); assay: In vivo PD RT-qPCR in NCI-N87 tumors, TAOK1; design: species or system CB17-SCID mice; settings: 10 mg/kg IV single dose, NCI-N87 xenograft, versus vehicle
[2] = system: FBXW5 (mature mRNA transcript); assay: In vivo PD RT-qPCR in NCI-N87 tumors, FBXW5; design: species or system CB17-SCID mice; settings: 10 mg/kg IV single dose, NCI-N87 xenograft, versus vehicle
NCIH1650.1 = assay: Payload cellular potency, CTGlo-ATS, 72 h, NCIH1650.1; format: cell-based; settings: corresponding free payload, cell line #1, 72 h
N87 cells = assay: Cell viability CellTiter-Glo, N87; format: cell-based, human; settings: unconjugated payload of the ADC
Caco-2 cells = assay: Caco-2 permeability of ADC payload; format: in vitro ADME; settings: for Perm. Mean Caco-2 B-A Perm: corresponding free payload
PC3 cells = assay: Cell viability, EPHA2-expressing PC3; format: cell-based; settings: free payload of the ADC
THP1.1 = assay: Payload cell potency and lethality CellTiter-Glo, THP1; format: cell-based; settings: for GI50: Homo sapiens
Procedure: Each concentration was tested in triplicate. […] Values represent time zero (TO).

[3] = Caco-2 permeability of ADC payload; format: in vitro ADME; settings: human, payload; for efflux ratio at 2 h, 10 µM: Caco-2, B−A/A−B
[4] = THP-1, read-out: Payload cell potency: CT..-ATS GMean GI50 (nM) THP1.1

SMILES: CC[C@H](O)[C@@H](C)C1OC1C[C@@](C)(O)/C=C/C=C(\C)[C@H]1OC(=O)C[C@H](O)CC[C@@](C)(OC)[C@@H](OC(=O)N2CCN(CCN3C(=O)C=CC3=O)CC2)/C=C/[C@@H]1C (stereo in doubt) [ADL14-D1, (2S,3S,6S,7R,10R,E)-10-hydroxy-2-((R,2E,4E)-6-hydroxy-7-((2S,3S)-3-((2R,3S)-3-hydroxypentan-2-yl)oxiran-2-yl)-6-methylhepta-2,4-dien-2-yl)-7-methoxy-3,7-dimethyl-12-oxooxacyclododec-4-en-6-yl 4-(2-(2,5-dioxo-2,5-dihydro-1H-pyrrol-1-yl)ethyl)piperazine-1-carboxylate]
- change in TAOK1 neojunction transcript in tumors [1]: did not exhibit statistically significant changes
- change in FBXW5 mature mRNA transcript in tumors [2]: did not exhibit statistically significant changes

SMILES: CC[C@H](O)[C@@H](C)[C@H]1O[C@@H]1C[C@@](C)(O)/C=C/C=C(\C)[C@H]1OC(=O)C[C@H](O)CC[C@@](C)(OC)[C@@H](OC(=O)N2CCNCC2)/C=C/[C@@H]1C (stereo in doubt) [D1]
- CTGlo-ATS GMean LD50 72 h NCIH1650.1 (NCIH1650.1): >10 µM
- Payload Rmin (%) (N87 cells): −40.041%
- Perm. Mean Caco-2 B-A Perm (Caco-2 cells): 2.05 10e−6 cm/s
- Payload Rmin (PC3 cells): −71.987%
- CTGlo-ATS Mean MinResponse % THP1.1 (THP1.1; payload of the ADC): −100.815%

SMILES: CC[C@H](O)[C@@H](C)C1OC1C[C@@](C)(O)/C=C/C=C(\C)[C@H]1OC(=O)C[C@H](O)CC[C@@](C)(OC(C)=O)[C@@H](OC(=O)N2CCNCC2)/C=C/[C@@H]1C (stereo in doubt) [D4, (2S,3S,6S,7R,10R,E)-7-acetoxy-10-hydroxy-2-((R,2E,4E)-6-hydroxy-7-((2S,3S)-3-((2R,3S)-3-hydroxypentan-2-yl)oxiran-2-yl)-6-methylhepta-2,4-dien-2-yl)-3,7-dimethyl-12-oxooxacyclododec-4-en-6-yl piperazine-1-carboxylate]
- Payload Rmin (%) (N87 cells): −81.775%
- Perm. Mean Caco-2 B-A Perm (Caco-2 cells): 1.79 10e−6 cm/s
- Payload Rmin (PC3 cells): −55.97%
- GI50 (THP1.1; [4]): 10.9 nM

SMILES: CC[C@H](O)[C@@H](C)[C@H]1O[C@@H]1C[C@@](C)(O)/C=C/C=C(\C)[C@H]1OC(=O)C[C@H](O)CC[C@@](C)(OC(C)=O)[C@@H](OC(=O)N2CCN(C(=O)OCc3ccc(NC(=O)[C@H](CCCNC(N)=O)NC(=O)[C@@H](NC(=O)CCCCCN4C(=O)C=CC4=O)C(C)C)cc3)CC2)/C=C/[C@@H]1C [ADL1-D4]
- change in TAOK1 neojunction transcript in tumors [1]: significant increases in TAOK1
- change in FBXW5 mature mRNA transcript in tumors [2]: significant depletion of FBXW5

SMILES: CC(=O)N1CCC(n2nnc3c(F)cc(/C=C(\C)[C@H]4OC(=O)C[C@H](O)CC[C@H](C)[C@@H](OC(=O)N5CC[N+](C)(Cc6ccc(NC(=O)[C@H](C)NC(=O)[C@@H](NC(=O)CCCCCN7C(=O)C=CC7=O)C(C)C)cc6)CC5)/C=C/[C@@H]4C)cc32)CC1 [ADL5-D15, 4-((((2S,3S,6R,7S,10R,E)-2-((E)-1-(1-(1-acetylpiperidin-4-yl)-4-fluoro-1H-benzo[d][1,2,3]triazol-6-yl)prop-1-en-2-yl)-10-hydroxy-3,7-dimethyl-12-oxooxacyclododec-4-en-6-yl)oxy)carbonyl)-1-(4-((S)-2-((S)-2-(6-(2,5-dioxo-2,5-dihydro-1H-pyrrol-1-yl)hexanamido)-3-methylbutanamido)propanamido)benzyl)-1-methylpiperazin-1-ium]
- change in TAOK1 neojunction transcript in tumors [1]: showed an increase in TAOK1, but did not reach statistical significance
- change in FBXW5 mature mRNA transcript in tumors [2]: significant depletion of FBXW5

SMILES: CC[C@H](O)[C@@H](C)[C@H]1O[C@@H]1C[C@@](C)(O)/C=C/C=C(\C)[C@H]1OC(=O)C[C@H](O)CC[C@@](C)(OC)[C@@H](OC(=O)N2CCN(C)CC2)/C=C/[C@@H]1C [D2, (2S,3S,6S,7R,10R,E)-10-hydroxy-2-((R,2E,4E)-6-hydroxy-7-((2R,3R)-3-((2R,3S)-3-hydroxypentan-2-yl)oxiran-2-yl)-6-methylhepta-2,4-dien-2-yl)-7-methoxy-3,7-dimethyl-12-oxooxacyclododec-4-en-6-yl 4-methylpiperazine-1-carboxylate]
- Payload Rmin (%) (N87 cells): −72.706%
- payload permeability as compared to D1 (Caco-2 cells; see Table 14): three-fold increase
- Payload Rmin (PC3 cells): −68.803%
- GI50 (THP1.1; [4]): 2.02 nM
- CTGlo-ATS Mean MinResponse % THP1.1 (THP1.1; payload of the ADC): −100.218%
- payload cell potency as compared to D1 (THP1.1; see Table 14): three-fold increase

SMILES: CC[C@H](O)[C@@H](C)[C@H]1O[C@@H]1C[C@@](C)(O)/C=C/C=C(\C)[C@H]1OC(=O)C[C@H](O)CC[C@@](C)(OC(=O)N2CCNCC2)[C@@H](OC(C)=O)/C=C/[C@@H]1C [D8, (2S,3S,6S,7R,10R,E)-6-acetoxy-10-hydroxy-2-((R,2E,4E)-6-hydroxy-7-((2R,3R)-3-((2R,3S)-3-hydroxypentan-2-yl)oxiran-2-yl)-6-methylhepta-2,4-dien-2-yl)-3,7-dimethyl-12-oxooxacyclododec-4-en-7-yl piperazine-1-carboxylate]
- CTGlo-ATS GMean LD50 72 h NCIH1650.1 (NCIH1650.1): >10 µM
- Payload Rmin (%) (N87 cells): −34.052%
- Papp A→B at 2 h, 10 µM ([3]; Caco-2, apical to basolateral, 2 hours, read-out: Permeability Mean Caco-2 A-B Perm (10e−6 cm/s)): 0.138 ×10⁻⁶ cm/s
- Perm. Mean Caco-2 B-A Perm (Caco-2 cells): 2.027 10e−6 cm/s
- Payload Rmin (PC3 cells): −68.37%

SMILES: CC[C@H](O)[C@@H](C)[C@H]1O[C@@H]1C[C@@](C)(O)/C=C/C=C(\C)[C@H]1OC(=O)C[C@H](O)CC[C@@](C)(O)[C@@H](OC(=O)N2CCN(C3CCCCCC3)CC2)/C=C/[C@@H]1C [D11, E7107]
- CTGlo-ATS Mean MinResponse % THP1.1 (THP1.1; payload of the ADC): −100.481%

SMILES: CC[C@H](O)[C@@H](C)[C@H]1O[C@@H]1C[C@@](C)(O)/C=C/C=C(\C)[C@H]1OC(=O)C[C@H](O)CC[C@@](C)(O)[C@@H](OC(=O)N2CCNCC2)/C=C/[C@@H]1C [D12]
- CTGlo-ATS GMean LD50 72 h NCIH1650.1 (NCIH1650.1): >100 µM
- Perm. Mean Caco-2 B-A Perm (Caco-2 cells): 0.23 10e−6 cm/s

SMILES: CC(=O)N1CCC(n2nnc3c(F)cc(/C=C(\C)[C@H]4OC(=O)C[C@H](O)CC[C@H](C)[C@@H](OC(=O)N5CCN(C)CC5)/C=C/[C@@H]4C)cc32)CC1 [D15]
- Papp B→A at 2 h, 10 µM ([3]; Caco-2, basolateral to apical, 2 hours, read-out: Permeability Mean Caco-2 B-A Perm (10e−6 cm/s)): 28.9 ×10⁻⁶ cm/s
- efflux ratio at 2 h, 10 µM [3]: 7.84
- Payload Rmin (PC3 cells): −79.835%

SMILES: C/C(=C\c1cc(F)cc(N2CCOCC2)c1)[C@H]1OC(=O)C[C@H](O)CC[C@H](C)[C@@H](OC(=O)N2CCN(C)CC2)/C=C/[C@@H]1C [D17]
- GI50 (THP1.1; THP-1, payload of the ADC, read-out: Payload cell potency: CT..-ATS GMean GI50 (nM) THP1.1): 2.83 nM

SMILES: CC[C@H](O)[C@@H](C)[C@H]1O[C@@H]1C[C@H](C)/C=C/C=C(\C)[C@H]1OC(=O)C[C@H](O)CC[C@@](C)(OC)[C@@H](OC(=O)N2CCNCC2)/C=C/[C@@H]1C [D18, (2S,3S,6S,7R,10R,E)-10-hydroxy-2-((S,2E,4E)-7-((2R,3R)-3-((2R,3S)-3-hydroxypentan-2-yl)oxiran-2-yl)-6-methylhepta-2,4-dien-2-yl)-7-methoxy-3,7-dimethyl-12-oxooxacyclododec-4-en-6-yl piperazine-1-carboxylate]
- Payload Rmin (%) (N87 cells): −92.127%
- efflux ratio at 2 h, 10 µM [3]: 23

SMILES: CC[C@H](O)[C@@H](C)[C@H]1O[C@@H]1C[C@@](C)(O)/C=C/C=C(\C)[C@H]1OC(=O)C[C@H](O)CC[C@@](C)(OC)[C@@H](OC(=O)N(C)CCNC)/C=C/[C@@H]1C [D20, (2S,3S,6S,7R,10R,E)-10-hydroxy-2-((R,2E,4E)-6-hydroxy-7-((2R,3R)-3-((2R,3S)-3-hydroxypentan-2-yl)oxiran-2-yl)-6-methylhepta-2,4-dien-2-yl)-7-methoxy-3,7-dimethyl-12-oxooxacyclododec-4-en-6-yl methyl(2-(methylamino)ethyl)carbamate]
- efflux ratio at 2 h, 10 µM [3]: 2.38

SMILES: CC[C@H](O)[C@@H](C)[C@H]1O[C@@H]1C[C@@](C)(O)/C=C/C=C(\C)[C@H]1OC(=O)C[C@H](O)CC[C@@](C)(OC)[C@@H](OC(=O)N2CCNC(CCC(=O)O)C2)/C=C/[C@@H]1C (stereo partly drawn) [D22, N-ethyl-N-isopropylpropan-3-(4-((((2S,3S,6S,7R,10R,E)-10-hydroxy-2-((R,2E,4E)-6-hydroxy-7-((2R,3R)-3-((2R,3S)-3-hydroxypentan-2-yl)oxiran-2-yl)-6-methylhepta-2,4-dien-2-yl)-7-methoxy-3,7-dimethyl-12-oxooxacyclododec-4-en-6-yl)oxy)carbonyl)piperazin-2-yl)propanoic acid]
- efflux ratio at 2 h, 10 µM [3]: 1.14
- CTGlo-ATS Mean MinResponse % THP1.1 (THP1.1; payload of the ADC): −78.119%

SMILES: CC[C@H](O)[C@@H](C)[C@H]1O[C@@H]1C[C@@](C)(O)/C=C/C=C(\C)[C@H]1OC(=O)C[C@H](O)CC[C@@](C)(OC)[C@@H](OC(=O)N2CCN(CCCC(=O)O)CC2)/C=C/[C@@H]1C [D25]
- Payload Rmin (%) (N87 cells): 40.364%

- efflux ratio at 2 h, 10 µM [3]: 4.08
SMILES: C/C(=C\c1cc(F)cc(N2CCN(CC(=O)O)CC2)c1)[C@H]1OC(=O)C[C@H](O)CC[C@H](C)[C@@H](OC(=O)N2CCNCC2)/C=C/[C@@H]1C [D33, 2-(4-(3-fluoro-5-((E)-2-((2S,3S,6R,7S,10R,E)-10-hydroxy-3,7-dimethyl-12-oxo-6-((piperazine-1-carbonyl)oxy)oxacyclododec-4-en-2-yl)prop-1-en-1-yl)phenyl)piperazin-1-yl) acetic acid]

SMILES: COc1cc2cc(c1Cl)N(C)C(=O)C[C@H](OC(=O)[C@H](C)N(C)C(=O)CCS)[C@]1(C)O[C@H]1[C@H](C)[C@@H]1C[C@@](O)(NC(=O)O1)[C@H](OC)/C=C/C=C(\C)C2 [DM1, reference compound]
- Payload cell lethality: CT..-ATS GMean LD50 (nM) THP1.1 (THP1.1; payload of the ADC): 3.287 nM
